“And” between values parts separate entries of the source, which are not always exact repeats. Identical values can stand only once.
Experiments:
SMN_W102A = target: T1, SMN_W102A (Homo sapiens, UniProt Q16637, W102A); test: ITC binding to SMN Tudor mutant W102A; conditions: Fig. 3d
T1 construct: SMN (aa 82–147); His (N, cleaved yes); made in house; host or cells: E. coli BL21 (DE3) Codon plus RIL
Text: (§1) The coding DNA fragments of following Tudor domains were cloned into pET28-MHL vector: SMN (aa 82–147), UHRF1 (aa 126–285), SMNDC1 (aa 53–130), TDRD3 (aa 554–611), SND1 (aa 650–910), TDRD2 (aa 327–420), FXR1 (aa 2–132), PHF1 (aa 28–87), SGF29 (aa 115–293), JMJD2A (aa 897–1101), 53BP1 (aa 1483–1606), SETDB1 (aa 190–410), LBR (aa 1–67), ZGPAT (aa 120–271). The coding regions of chromodomain of CBX7 (aa 8–62), PWWP domain of DNMT3A (aa 275–417), WD40 repeats of WDR5 (aa 24–334) and CW domain of ZCWPW2 (aa 21–78) were also subcloned into pET28-MHL vector to generate N-terminally His-tagged fusion protein. The MBT repeats of L3MBTL1 (aa 200–522) and L3MBTL2 (aa 170–625) were subcloned into pET28GST-LIC vector to generate N-terminally GST-His-tagged fusion protein. All the plasmids were generated by ligase independent cloning (Vazyme Biotech, C112 or ABclonal Technology, RK21020). […] The molecular weight of all protein samples was measured by mass spectrometry.
(§2) For the ITC measurement, the concentrated proteins were diluted into 20 mM Tris-HCl, pH 7.5, 150 mM NaCl (ITC buffer); the lyophilized compounds were dissolved in the same buffer, and the pH value was adjusted by adding 2 M NaOH or 2 M HCl. […] Compound concentrations were calculated from the mass and the volume of the solvent. […]

SETDB1 = target: T2, SETDB1 (Homo sapiens, UniProt Q15047); test: ITC binding to SETDB1; conditions: Fig. 1c
T2 construct: SETDB1 (aa 190–410); His (N, cleaved yes); made in house; host or cells: E. coli BL21 (DE3) Codon plus RIL
Text: as §1, §2

[1] = target: T3, UHRF1 tandem Tudor domain (TTD) (Homo sapiens, UniProt Q96T88); test: ITC binding to tandem Tudor domain of UHRF1
T3 construct: UHRF1 (aa 126–285); His (N, cleaved yes); made in house; host or cells: E. coli BL21 (DE3) Codon plus RIL
T3 sequence (Q96T88 126-285): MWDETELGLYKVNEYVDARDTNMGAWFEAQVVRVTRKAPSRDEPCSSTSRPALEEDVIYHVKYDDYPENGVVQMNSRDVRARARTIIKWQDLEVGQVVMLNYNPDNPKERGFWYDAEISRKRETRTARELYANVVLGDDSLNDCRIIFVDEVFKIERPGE
Text: The coding DNA fragments of following Tudor domains were cloned into pET28-MHL vector: SMN (aa 82–147), UHRF1 (aa 126–285), SMNDC1 (aa 53–130), TDRD3 (aa 554–611), SND1 (aa 650–910), TDRD2 (aa 327–420), FXR1 (aa 2–132), PHF1 (aa 28–87), SGF29 (aa 115–293), JMJD2A (aa 897–1101), 53BP1 (aa 1483–1606), SETDB1 (aa 190–410), LBR (aa 1–67), ZGPAT (aa 120–271). The coding regions of chromodomain of CBX7 (aa 8–62), PWWP domain of DNMT3A (aa 275–417), WD40 repeats of WDR5 (aa 24–334) and CW domain of ZCWPW2 (aa 21–78) were also subcloned into pET28-MHL vector to generate N-terminally His-tagged fusion protein. The MBT repeats of L3MBTL1 (aa 200–522) and L3MBTL2 (aa 170–625) were subcloned into pET28GST-LIC vector to generate N-terminally GST-His-tagged fusion protein. All the plasmids were generated by ligase independent cloning (Vazyme Biotech, C112 or ABclonal Technology, RK21020). […] The proteins were further purified by Superdex75 or Superdex200 gel-filtration column (GE Healthcare) in a buffer containing 20 mM Tris-HCl, pH 7.5, 150 mM NaCl and 1 mM DTT. For crystallization experiments, purified proteins were concentrated to 18 mg/mL for SMN, 23 mg/mL for UHRF1 and 10 mg/mL for TDRD3 in the gel-filtration buffer. All the mutations were introduced with the QuikChange II XL site-directed mutagenesis kit (Stratagene, 200522) and confirmed by DNA sequencing. Mutant proteins were also expressed in E. coli BL21 (DE3) Codon plus RIL and purified using the same procedures described above. The molecular weight of all protein samples was measured by mass spectrometry.
For the ITC measurement, the concentrated proteins were diluted into 20 mM Tris-HCl, pH 7.5, 150 mM NaCl (ITC buffer); the lyophilized compounds were dissolved in the same buffer, and the pH value was adjusted by adding 2 M NaOH or 2 M HCl. The compounds that could not be dissolved in the ITC buffer were dissolved in DMSO with the accessible highest concentration. Compound concentrations were calculated from the mass and the volume of the solvent. For the ITC assay with compound dissolved in DMSO, the protein was diluted by ITC buffer containing same final concentration of DMSO. All measurements were performed in duplicate at 25 °C, using a VP-ITC (MicroCal, Inc.), an iTC-200 (MicroCal, Inc.), or a Nano-ITC (TA, Inc.) microcalorimeter. The protein with a concentration of 50–100 μM was placed in the cell chamber, and the compounds with a concentration of 0.5–2 mM in syringe was injected in 25, 20, or 20 successive injections with a spacing of 180, 150, or 120 s for VP-ITC, iTC-200, or Nano-ITC, respectively, as previously described[30]–[32]. iTC-200 or Nano-ITC data were consistent with those from the VP-ITC instrument, based on ITC results of SMN-compound 1 detected by using all the instruments. Control experiments were performed under identical conditions to determine the heat signals that arise from injection of the compounds into the buffer. Data were fitted using the single-site binding model within the Origin software 7.0 package (MicroCal, Inc.) or the independent model within the Nano-Analyze software package (TA, Inc.).

[2] = tested on: RNAP II occupancy at ACTB gene; test: RNAP II (POLR2A) ChIP-qPCR along the ACTB gene; type: cell-based, human; conditions: 72 h; for POLR2A ChIP-qPCR, ACTB position 332 / POLR2A ChIP-qPCR, ACTB position 1671 / POLR2A ChIP-qPCR, ACTB position 2911 / POLR2A ChIP-qPCR, ACTB position 3560 / POLR2A ChIP-qPCR, ACTB position 3752 / POLR2A ChIP-qPCR, ACTB position 4657 / POLR2A ChIP-qPCR, ACTB position 5590 / POLR2A ChIP-qPCR, ACTB position -72: HEK293, 20 μM; for occupancy levels of RNAP II at the promoter regions and 3′-end of the ACTB gene: HEK293 cells, 20 µM
Protocol: ChIP was performed using the EZ-ChIP™ A - Chromatin Immunoprecipitation Kit (Millipore, 17-371) according to the manufacturer’s instruction. Antibodies were used with a range of 1–2 μg, and IgG (Millipore, polyclonal antibody, 12-370) was used as a background control. After immunoprecipitation, genomic DNA was de-crosslinked in ChIP elution buffer containing 5 M NaCl at 65 °C overnight and purified with the Qiaex II kit (Qiagen, 20021), and eluted in water for PCR amplification. Immunoprecipitated and input DNAs were used as templates for qPCR. The qPCR primer sequences for ACTB gene are the same as described earlier[9] and shown in the Supplementary Table 2. For analysis of SMN chemical antagonists, HEK293 cells were treated with DMSO, compound 1 or compound 2 (a final concentration of 20 μM) for 72 h, before processing for ChIP.

T1 sequence (Q16637 82-147 W102A): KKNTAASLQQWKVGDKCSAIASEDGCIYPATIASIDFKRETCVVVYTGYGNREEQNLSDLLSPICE

| Kd (UHRF1) [1] | SMILES | Kd (SMN_W102A) | Kd (SETDB1) | Kd [1] | POLR2A ChIP-qPCR, ACTB position 332 [2] | POLR2A ChIP-qPCR, ACTB position 1671 [2] | POLR2A ChIP-qPCR, ACTB position 2911 [2] | POLR2A ChIP-qPCR, ACTB position 3560 [2] | POLR2A ChIP-qPCR, ACTB position 3752 [2] | POLR2A ChIP-qPCR, ACTB position 4657 [2] | POLR2A ChIP-qPCR, ACTB position 5590 [2] | POLR2A ChIP-qPCR, ACTB position -72 [2] | occupancy levels of RNAP II at the promoter regions and 3′-end of the ACTB gene [2] |
| --- | --- | --- | --- | --- | --- | --- | --- | --- | --- | --- | --- | --- | --- |
| – | Cn1c2c(c(=N)c3c1CCC3)CCC2 [Compound 1, 4-methyl-2,3,4,5,6,7-hexahydrodicyclopenta[b,e]pyridin-8(1H)-imine] | > 244 µM | > 244 µM | ~16 µM and 16 µM | 0.1628 | 0.1331 | 0.08894 | 0.1246 | 0.2307 | 0.1056 | 0.1381 | 0.4274 | significantly increased |
| No binding | CCCn1c2c(c(=N)c3c1CCC3)CCC2 [Compound 2, 4-propyl-2,3,4,5,6,7-hexahydrodicyclopenta[b,e]pyridin-8(1H)-imine] | – | – | – | 0.1333 | 0.1287 | 0.06481 | 0.09661 | 0.2124 | 0.1677 | 0.1104 | 0.5589 | significantly increased |

— PMC9481570, “A small molecule antagonist of SMN disrupts the interaction between SMN and RNAP II” (Nature Communications, 2022)
